Here are results for seven molecules from patent US11179391B2, “Compound with kinase inhibitory activity and preparation method and use thereof” (priority 2017, dated 2021).

Format in all cases: biochemical
In one assay the target is CDK1/CyclinB (Homo sapiens, UniProt P06493). Description: Determination of CDK activity (Caliper mobility shift, FAM-P8 peptide): CDK1. The settings on record: CDK1/CyclinB; read-out: CDK1 enzymatic inhibitory activity (IC50). As to the method:
(§1) In vitro, CDK (CDK4, CDK6, CDK1, CDK2, CDK7, and CDK9) kinase activity was tested by the following method.
(§2) 1. Prepared 1× Kinase Buffer and Stop Buffer for the Test
(§3) 1) 1× Kinase Base Buffer (CDK1, 2, and 6).
(§4) 1) Diluted the compound to 50 times of the maximum concentration with 100% DMSO. For example, if the desired maximum inhibitory concentration is 10 μM, then a DMSO solution of 500 μM concentration is required.
(§5) 2) Transferred the compound to a 96-well plate and serially diluted the compound from a 100% DMSO solution at a ratio of 30 μm to 60 μm for a total of 10 concentrations gradients. 3) Transferred 100 μm of 100% DMSO to two empty wells as a no compound control and a no enzyme control.
(§6) 1) Transferred 5 μm of each compound from the 96-well intermediate plate to a 384-well plate. […] A2 of the 96-well plate was transferred to A3 and A4 of the 384-well plate, and so on.
(§7) 1) Prepared a 2.5× enzyme solution: added kinase into 1× kinase base buffer.
(§8) 2) Prepared a 2.5× peptide solution: added FAM-labeled peptide and ATP into the 1× kinase base buffer.
(§9) 3) Transferred the 2.5× enzyme solution to the assay plate: Assay plate already contained 5 μm of 10% DMSO and transferred 10 μm of 2.5× enzyme solution to each well.
(§10) 4) Incubated at room temperature for 10 min.
(§11) 5) Transferred the 2.5× peptide solution to the assay plate: added 10 μm of 2.5× peptide solution to each well of the 384-well assay plate.
(§12) 6) Kinase reaction and termination: incubated at 28° C. for a specified period and added 25 μm of stop buffer to stop the reaction.
(§13) 5. Caliper Reading: Collect Data on Caliper.
(§14) 1) Copied conversion data from Caliper program and Converted conversion values to inhibition values: Inhibition rate (%)=(1−OD value of the compound-OD value of the control well)/(OD value of the control empty-OD value of the control well)*100%.
(§15) 2) Fitted the data in XLFit excel add-in version 4.3.1 to give the corresponding IC50 values.

In a further assay the target is CDK7/CyclinH/MAT1 (Homo sapiens, UniProt P50613). Description: Determination of CDK activity (Caliper mobility shift, FAM-P8 peptide): CDK7. The settings on record: CDK7/CyclinH/MAT1; read-out: CDK7 enzymatic inhibitory activity (IC50). As to the method:
as §1
(§16) CDK and raw materials used here: CDK4/CycD3 (Carna, Cat. No 04-105, Lot. No 10CBS-0429 C, GST-CDK4(1-303end)/GST-CycD3(1-292end)); CDK6/cycD3 (Carna, Cat. No 04-107, Lot. No 09CBS-0622K, GST-CDK6(1-326(end))); CDK1/CyclinB (Millipore, Cat. 14-450k, Lot. No 25729U, His-CDK1+GST-cyclinB); CDK2/CycA2 (Carna, Cat. No 04-103, Lot. No 06CBS-3024, GST-CDK2 (1-298(end))); CDK7/CyclinH/MAT1 (Millipore, Cat. No 14-476M, Lot. No WAB0365-A, His-CDK7+GST-MAT1+cyclinH); CDK9/cyclinTl (Millipore, Cat. No 14-685K, Lot. No. 2476163-A, His-CDK9+cyclinTl); Peptide FAM-P8 (GL Biochem, Cat. No. 112396, Lot. No. P100804-XZ112396); ATP (Sigma, Cat. No. A7699-1G, CAS No. 987-65-5); DMSO (Sigma, Cat. No. D2650, Lot. No. 474382); EDTA (Sigma, Cat. No. E5134, CAS No. 60-00-4); 96-well plate (Corning, Cat. No. 3365, Lot. No. 22008026); 384-well plate (Corning, Cat. No. 3573, Lot. No. 12608008); Staurosporine (Sigma, Cat. No. S4400-1MG, Lot. No. 046K4080).
as §2
(§17) 3) 1× Kinase Base Buffer (CDK7 and 9).
as §4, §5
(§18) 4) Prepared intermediate plate and transferred the compound of 10 μm concentration from the original plate to the intermediate plate, and then 90 μm of 1× kinase buffer was added and mixed by shaking for 10 min.
(§19) 4) Preparing intermediate plate and transferred the compound of […] concentration from the original plate to the intermediate plate, and then 90 μm of 1× kinase buffer was added and mixed by shaking for 10 min.
(§20) 1) Transferred 5 μm of each compound from the 96-well intermediate plate to a 384-well plate. For example, A1 of the 96-well plate was transferred to A1 and A2 of the 384-well plate. A2 of the 96-well plate was transferred to A3 and A4 of the 384-well plate, and so on.
as §7, §8, §9, §10, §11, §12, §13, §14, §15

The next assay concerns the target CDK9/cyclinTl (Homo sapiens, UniProt P50750). Description: Determination of CDK activity (Caliper mobility shift, FAM-P8 peptide): CDK9. The settings on record: CDK9/cyclinTl. The protocol: as §1, §2, §17, §4, §5, §6, §7, §8, §9, §10, §11, §12, §13, §14, §15
The target of the next assay is CDK4/CycD3 (Homo sapiens, UniProt P11802). The assay can be described thus: Determination of CDK activity (Caliper mobility shift, FAM-P8 peptide): CDK4. The settings on record: CDK4/CycD3; read-out: CDK4 enzymatic inhibitory activity (IC50). The protocol:
as §1, §16, §2
2) 1× Kinase Base Buffer (CDK4).
as §4, §5, §18, §19, §20, §7, §8, §9, §10, §11, §12, §13, §14, §15

The target of the next assay is CDK6/cycD3 (Homo sapiens, UniProt Q00534). Description: Determination of CDK activity (Caliper mobility shift, FAM-P8 peptide): CDK6. The settings on record: CDK6/cycD3; read-out: CDK6 enzymatic inhibitory activity (IC50). As to the method:
as §1, §16, §2, §3, §4, §5, §18, §19, §20, §7, §8, §9, §10, §11, §12, §13, §14, §15

A further assay has as its target CDK2/CycA2 (Homo sapiens, UniProt P24941). The assay can be described thus: Determination of CDK activity (Caliper mobility shift, FAM-P8 peptide): CDK2. The settings on record: CDK2/CycA2; read-out: CDK2 enzymatic inhibitory activity (IC50). The protocol:
as §1, §2, §3, §4, §5, §6, §7, §8, §9, §10, §11, §12, §13, §14, §15

The mark [1] stands for this setting: read-out: CDK9 enzymatic inhibitory activity (IC50).

Where two headings read alike, the source gives them in different places.

For orientation: IC50 means the concentration needed to halve the response being measured.

Sequence of CDK6/cycD3 (Q00534 whole entry): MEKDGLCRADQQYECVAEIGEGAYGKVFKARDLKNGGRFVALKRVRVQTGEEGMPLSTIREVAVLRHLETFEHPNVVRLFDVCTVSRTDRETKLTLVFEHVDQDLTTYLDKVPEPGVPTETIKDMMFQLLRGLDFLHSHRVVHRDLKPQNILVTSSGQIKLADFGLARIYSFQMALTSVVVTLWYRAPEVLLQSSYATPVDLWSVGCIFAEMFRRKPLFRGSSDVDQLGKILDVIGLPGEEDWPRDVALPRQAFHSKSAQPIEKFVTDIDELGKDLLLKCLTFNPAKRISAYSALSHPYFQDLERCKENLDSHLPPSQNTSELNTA
Sequence of CDK6/cycD3 (P30281 whole entry partner): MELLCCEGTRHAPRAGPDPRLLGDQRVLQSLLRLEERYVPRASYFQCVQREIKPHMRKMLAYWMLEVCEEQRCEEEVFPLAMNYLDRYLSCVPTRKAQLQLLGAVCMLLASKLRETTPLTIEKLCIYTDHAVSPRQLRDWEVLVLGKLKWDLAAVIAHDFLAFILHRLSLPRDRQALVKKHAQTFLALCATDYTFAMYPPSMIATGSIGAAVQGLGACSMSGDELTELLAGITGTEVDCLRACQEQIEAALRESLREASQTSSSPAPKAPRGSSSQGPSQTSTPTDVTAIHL
Sequence of CDK7/CyclinH/MAT1 (P50613 whole entry): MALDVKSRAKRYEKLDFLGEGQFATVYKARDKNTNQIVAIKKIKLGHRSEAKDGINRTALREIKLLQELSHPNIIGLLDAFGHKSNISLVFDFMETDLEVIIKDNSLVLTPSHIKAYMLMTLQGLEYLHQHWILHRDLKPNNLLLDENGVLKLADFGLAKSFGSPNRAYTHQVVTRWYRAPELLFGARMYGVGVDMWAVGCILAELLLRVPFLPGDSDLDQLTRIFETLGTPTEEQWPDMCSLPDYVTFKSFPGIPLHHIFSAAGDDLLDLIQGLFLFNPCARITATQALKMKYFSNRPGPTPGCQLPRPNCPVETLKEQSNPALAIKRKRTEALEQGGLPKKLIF
Sequence of CDK7/CyclinH/MAT1 (P51946 whole entry partner): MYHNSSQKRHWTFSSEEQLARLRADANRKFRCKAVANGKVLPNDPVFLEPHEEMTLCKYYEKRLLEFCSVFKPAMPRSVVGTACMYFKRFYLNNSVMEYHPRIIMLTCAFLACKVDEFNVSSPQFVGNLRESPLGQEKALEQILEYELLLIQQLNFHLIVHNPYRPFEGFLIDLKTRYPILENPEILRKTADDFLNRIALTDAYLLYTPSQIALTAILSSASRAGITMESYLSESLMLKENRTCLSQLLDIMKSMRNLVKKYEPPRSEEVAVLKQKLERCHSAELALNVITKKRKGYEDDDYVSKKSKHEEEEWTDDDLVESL
Sequence of CDK7/CyclinH/MAT1 (P51948 whole entry partner): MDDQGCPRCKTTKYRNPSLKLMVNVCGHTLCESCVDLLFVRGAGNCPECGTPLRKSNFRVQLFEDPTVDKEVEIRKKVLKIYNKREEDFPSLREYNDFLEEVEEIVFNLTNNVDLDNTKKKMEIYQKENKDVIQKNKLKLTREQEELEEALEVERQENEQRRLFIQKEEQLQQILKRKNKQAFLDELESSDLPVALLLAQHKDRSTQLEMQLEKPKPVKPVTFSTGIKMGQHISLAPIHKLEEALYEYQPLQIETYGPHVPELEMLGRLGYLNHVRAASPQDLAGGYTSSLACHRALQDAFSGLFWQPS
Sequence of CDK4/CycD3 (P11802 whole entry): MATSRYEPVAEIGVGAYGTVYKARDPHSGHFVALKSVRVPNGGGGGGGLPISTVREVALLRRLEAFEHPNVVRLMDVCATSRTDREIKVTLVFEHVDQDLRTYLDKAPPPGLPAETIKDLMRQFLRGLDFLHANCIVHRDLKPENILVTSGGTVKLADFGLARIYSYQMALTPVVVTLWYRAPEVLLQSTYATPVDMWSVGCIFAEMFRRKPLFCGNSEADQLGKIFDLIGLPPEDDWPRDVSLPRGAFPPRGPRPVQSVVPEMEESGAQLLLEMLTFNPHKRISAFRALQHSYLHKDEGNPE
Sequence of CDK4/CycD3 (P30281 whole entry partner): as the sequence (P30281 whole entry partner) above
Sequence of CDK9/cyclinTl (P50750 whole entry): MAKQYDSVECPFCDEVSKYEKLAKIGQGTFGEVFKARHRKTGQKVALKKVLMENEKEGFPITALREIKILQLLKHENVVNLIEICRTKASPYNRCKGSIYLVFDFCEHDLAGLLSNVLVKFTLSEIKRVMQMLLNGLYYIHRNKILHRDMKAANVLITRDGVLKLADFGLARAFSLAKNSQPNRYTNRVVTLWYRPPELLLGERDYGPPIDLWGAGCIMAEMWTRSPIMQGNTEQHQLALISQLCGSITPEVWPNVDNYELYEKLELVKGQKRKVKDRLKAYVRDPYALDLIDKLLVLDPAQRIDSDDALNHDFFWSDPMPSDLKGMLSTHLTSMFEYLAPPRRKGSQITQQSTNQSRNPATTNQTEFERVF
Sequence of CDK9/cyclinTl (O60563 whole entry partner): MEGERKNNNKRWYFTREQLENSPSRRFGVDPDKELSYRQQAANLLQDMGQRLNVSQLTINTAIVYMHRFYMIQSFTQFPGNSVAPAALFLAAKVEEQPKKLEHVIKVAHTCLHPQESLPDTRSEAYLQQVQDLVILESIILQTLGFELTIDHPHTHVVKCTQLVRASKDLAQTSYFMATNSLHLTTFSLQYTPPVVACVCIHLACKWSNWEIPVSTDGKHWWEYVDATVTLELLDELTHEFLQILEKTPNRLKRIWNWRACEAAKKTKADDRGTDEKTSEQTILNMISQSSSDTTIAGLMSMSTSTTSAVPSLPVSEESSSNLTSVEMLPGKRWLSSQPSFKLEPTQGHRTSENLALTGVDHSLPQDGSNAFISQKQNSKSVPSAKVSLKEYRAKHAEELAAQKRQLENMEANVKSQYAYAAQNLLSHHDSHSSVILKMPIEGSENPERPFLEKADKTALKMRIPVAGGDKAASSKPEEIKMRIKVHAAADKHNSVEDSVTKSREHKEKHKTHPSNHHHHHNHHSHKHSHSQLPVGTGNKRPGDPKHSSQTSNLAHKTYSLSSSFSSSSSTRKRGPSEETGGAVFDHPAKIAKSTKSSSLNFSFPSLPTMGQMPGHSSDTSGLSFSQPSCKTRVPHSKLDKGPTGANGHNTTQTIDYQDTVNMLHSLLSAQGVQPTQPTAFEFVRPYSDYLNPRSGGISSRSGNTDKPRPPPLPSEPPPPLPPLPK
Sequence of CDK1/CyclinB (P06493 whole entry): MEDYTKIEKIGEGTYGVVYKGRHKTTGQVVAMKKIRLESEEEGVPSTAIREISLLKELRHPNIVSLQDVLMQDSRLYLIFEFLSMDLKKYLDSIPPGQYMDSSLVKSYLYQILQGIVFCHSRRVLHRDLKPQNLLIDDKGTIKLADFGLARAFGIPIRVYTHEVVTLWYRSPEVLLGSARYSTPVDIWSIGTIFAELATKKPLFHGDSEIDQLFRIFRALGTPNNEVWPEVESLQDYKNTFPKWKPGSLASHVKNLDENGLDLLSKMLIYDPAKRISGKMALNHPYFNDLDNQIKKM
Sequence of CDK1/CyclinB (P14635 whole entry partner): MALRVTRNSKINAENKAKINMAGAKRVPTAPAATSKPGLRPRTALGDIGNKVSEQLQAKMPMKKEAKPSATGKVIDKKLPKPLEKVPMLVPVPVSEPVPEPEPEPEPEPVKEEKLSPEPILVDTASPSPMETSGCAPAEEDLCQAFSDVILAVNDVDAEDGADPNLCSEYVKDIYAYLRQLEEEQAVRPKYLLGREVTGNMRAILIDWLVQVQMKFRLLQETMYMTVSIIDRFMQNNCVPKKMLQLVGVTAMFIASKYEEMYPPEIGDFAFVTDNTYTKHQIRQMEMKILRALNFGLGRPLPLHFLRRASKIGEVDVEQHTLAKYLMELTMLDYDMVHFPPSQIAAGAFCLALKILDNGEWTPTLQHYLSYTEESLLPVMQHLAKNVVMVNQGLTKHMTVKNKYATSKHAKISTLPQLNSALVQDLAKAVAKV

As for `CC[C@@H](c1ccc(Nc2ncc(F)c(-c3cc(F)c4nc(C)n(C(C)C)c4c3)n2)nc1)N1CCNCC1` [Example 4], the IC50 is 10 to 100 µM at CDK1/CyclinB; 1 to 10 µM on CDK7/CyclinH/MAT1; 1 to 10 µM on CDK9/cyclinTl (setting [1]); less than 0.1 µM at CDK4/CycD3; 0.5 to 1 µM at CDK6/cycD3; 1 to 10 µM on CDK2/CycA2.
For `CC[C@@H](c1ccc(Nc2ncc(F)c(-c3cc(F)c4nc(C)n(C(C)C)c4c3)n2)nc1)N1CCN(C)CC1` [Example 6], the IC50 was 10 to 100 µM on CDK1/CyclinB; 1 to 10 µM at CDK7/CyclinH/MAT1; 1 to 10 µM at CDK9/cyclinTl (CDK9 enzymatic inhibitory activity (IC50)); less than 0.1 µM at CDK4/CycD3; 0.1 to 0.5 µM on CDK6/cycD3; 1 to 10 µM at CDK2/CycA2.
Regarding `CC(=C1CCNCC1)c1ccc(Nc2ncc(F)c(-c3cc(F)c4nc(C)n(C(C)C)c4c3)n2)nc1` [Example 61], the IC50 is 0.5 to 1 µM on CDK1/CyclinB; 1 to 10 µM at CDK7/CyclinH/MAT1; 0.1 to 0.5 µM on CDK9/cyclinTl (setting [1]); less than 0.1 µM on CDK4/CycD3; 0.5 to 1 µM on CDK6/cycD3; 0.1 to 0.5 µM at CDK2/CycA2.
For `Cc1nc2c(F)cc(-c3nc(Nc4ccc([C@H](C)C5CCN(C)CC5)cn4)ncc3F)cc2n1C(C)C` (single isomer, unassigned) [Example 21], the IC50 on CDK1/CyclinB is 0.1 to 0.5 µM; at CDK7/CyclinH/MAT1, 1 to 10 µM; at CDK9/cyclinTl (setting [1]), 0.1 to 0.5 µM; at CDK4/CycD3, less than 0.1 µM; on CDK6/cycD3, less than 0.1 µM; on CDK2/CycA2, less than 0.1 µM.
For `Cc1nc2c(F)cc(-c3nc(Nc4ccc(C=C5CCN(CCO)CC5)cn4)ncc3F)cc2n1C(C)C` [Example 67], the concentration for half-maximal inhibition (IC50) at CDK1/CyclinB was 0.1 to 0.5 µM; on CDK7/CyclinH/MAT1, 1 to 10 µM; at CDK9/cyclinTl (setting [1]), 0.1 to 0.5 µM; at CDK4/CycD3 it was less than 0.1 µM; at CDK6/cycD3 it was less than 0.1 µM; on CDK2/CycA2, less than 0.1 µM.
On to `Cc1nc2c(F)cc(-c3nc(Nc4ccc(C=C5CCN(CC(F)F)CC5)cn4)ncc3F)cc2n1C(C)C` [Example 69], for which the IC50 was 0.1 to 0.5 µM at CDK1/CyclinB; 1 to 10 µM at CDK7/CyclinH/MAT1; 0.1 to 0.5 µM at CDK9/cyclinTl (setting [1]); less than 0.1 µM at CDK4/CycD3; less than 0.1 µM at CDK6/cycD3; less than 0.1 µM on CDK2/CycA2.
For the molecule `CCN1CCC(C(C)c2ccc(Nc3ncc(F)c(-c4cc(F)c5nc(C)n(C(C)C)c5c4)n3)nc2)CC1` (single isomer, unassigned) [Example 18, (R or S)—N-(5-(1-(1-ethylpiperidin-4-yl)ethyl)pyridin-2-yl)-5-fluoro-4-(4-fluoro-1-isopropyl-2-methyl-1H-benzo[d]imidazol-6-yl) pyrimidin-2-amine], the IC50 on CDK1/CyclinB is 0.5 to 1 µM; at CDK7/CyclinH/MAT1, 1 to 10 µM; on CDK9/cyclinTl (setting [1]), 0.5 to 1 µM; on CDK4/CycD3, less than 0.1 µM; at CDK6/cycD3, 0.1 to 0.5 µM; at CDK2/CycA2, 0.1 to 0.5 µM.
